Laboratory results taken from article PMC7252619 (PLoS ONE, 2020).
pIC50: −log10 of the molar value. Where two headings read alike, the source gives them in different places.

Tests used:
[1] = target: T1, NEK2 (Homo sapiens, UniProt P51955); assay: Kinase activity test (ReactionBiology), % enzyme activity relative to DMSO; type: biochemical; settings: NEK2;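 note: FDA-approved drugs chosen by structure-based repositioning, each screened at 10 or 1 µM for kinase activity, expressed as percent of DMSO controls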
T1 construct: purchased ReactionBiology
T1 sequence (P51955 1-445): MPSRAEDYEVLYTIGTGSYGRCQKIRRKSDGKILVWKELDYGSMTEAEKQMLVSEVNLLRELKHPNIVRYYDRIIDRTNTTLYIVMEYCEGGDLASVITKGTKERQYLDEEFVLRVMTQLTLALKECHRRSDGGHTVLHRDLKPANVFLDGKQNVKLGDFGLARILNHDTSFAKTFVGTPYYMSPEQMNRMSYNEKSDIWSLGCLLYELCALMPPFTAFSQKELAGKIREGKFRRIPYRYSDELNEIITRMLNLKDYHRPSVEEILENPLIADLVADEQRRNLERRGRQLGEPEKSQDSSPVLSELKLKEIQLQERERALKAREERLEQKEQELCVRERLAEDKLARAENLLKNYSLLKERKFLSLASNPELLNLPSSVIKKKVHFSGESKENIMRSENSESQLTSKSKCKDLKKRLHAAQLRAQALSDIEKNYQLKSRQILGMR

[2] = target: T2, DAPK1 (Homo sapiens, UniProt P53355); assay: as above; type: biochemical; settings: DAPK1
T2 construct: purchased ReactionBiology

[3] = target: T3, CK1d (Homo sapiens, UniProt P48730); assay: as above; type: biochemical; settings: CK1d
T3 construct: purchased ReactionBiology

[4] = target: T4, MST-4 (Homo sapiens, UniProt Q9P289); assay: as above; type: biochemical; settings: MST4;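 note: marketed FDA-approved drugs screened at 10 µM and 1 µM against a ten-kinase panel, remaining activity given as percent of DMSO controls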
T4 construct: purchased ReactionBiology

[5] = target: T5, MAP2K2 (Homo sapiens, UniProt P36507); assay: as above; type: biochemical; settings: MEK2
T5 construct: purchased ReactionBiology

[6] = system: human CD19+ B cells; assay: B-cell assay: IgG production of ODN2006-stimulated primary B cells (AlphaLISA); type: cell-based; settings: Homo sapiens, B-cell, 168 h; IgG production, ODN2006 0.1 μM, 7 days; mean of 4 independent experiments; read-out: B-cell IC50
Description: (§1) Compounds were prepared as 10 mM stock solutions in dimethylsulfoxide (DMSO)and were tested at 50-10-1-0.1-0.01 and 0.001 μM in the 4 assays.
Blood samples of healthy volunteers were collected at the Red Cross of Mechelen, Belgium.
Highly purified naive peripheral human B cells were separated from fresh human PBMCs on magnetic columns by positive selection using CD19 magnetic beads according to the manufacturer’s instructions (MACS Miltenyi Biotech, Leiden, The Netherlands). […] Freshly isolated human CD19+ B cells were then plated at 25 000 cells per well in a 384-well plate (Perkin Elmer, Zaventem, Belgium) in 55 μL in DMEM medium containing 10% FCS and 5 μg/mL gentamicin sulphate. After 7 days of stimulation with 0.1 μM ODN2006 (InvivoGen, Toulouse, France), supernatant was taken for analysis of IgG using the AlphaLISA human IgG kit according to the manufacturer’s instructions (Perkin Elmer, Zaventem, Belgium).

[7] = system: human PBMCs (responder cells) with RPMI1788 stimulator cells; assay: Mixed Lymphocyte Reaction (MLR, T cell assay), 3H-thymidine incorporation; type: cell-based; settings: Homo sapiens, RPMI-1788; mean of 4 independent measures; read-out: T-cell efficacy, MLR IC 50 (µM) Mean
[8] = WST-1 cytotoxicity assay on RPMI1788 cells (B-cell line); type: cell-based, human; settings: human, RPMI1788 cells (B-cell line), mean of 4 independent measures, read-out: Cytotoxicity, WST-1 RPMI 1788 IC 50 (µM) Mean
Description: as §1
(§2) The human B cell line RPMI1788 (American Type Culture Collection, USA) and the human T cell line Jurkat (European Collection of Cell Cultures, ECACC, England) were maintained in RPMI1640 culture medium (BioWhittaker®, Lonza, Verviers, Belgium) containing 10% foetal calf serum (FCS, HyClone® Thermo Scientific, United Kingdom) and 5 μg/mL gentamicin sulphate (BioWhittaker®, Lonza, Verviers, Belgium) at 37°C and 5% CO2.
(§3) WST-1 assays on RPMI-1788 cells and Jurkat cells were performed as follows: 20 μL of test compound dilution were added to each well containing exponential growing cells and the plates were incubated for 48 h at 37°C, 5% CO2. Untreated cells and positive control (1% triton X-100, for the last 15 min) served as reference for maximum and minimum viability. At the end of incubation 100 μL of supernatant were removed and replaced by 10 μL of WST-1 solution (Cell Proliferation Reagent WST-1, Roche Applied Science).

[9] = WST-1 cytotoxicity assay on Jurkat cells (T-cell line); type: cell-based, human; settings: human, Jurkat cells (T-cell line), mean of 4 independent measures, read-out: Cytotoxicity, WST-1 Jurkat IC 50 (µM) Mean
Description: as §1, §2, §3

[10] = Average, read-out: % Enzyme Activity (relative to DMSO controls), Average
[11] = replicate Data 1, read-out: % Enzyme Activity (relative to DMSO controls), Data 1
[12] = replicate Data 2, read-out: % Enzyme Activity (relative to DMSO controls), Data 2

T2 sequence (P53355 whole entry): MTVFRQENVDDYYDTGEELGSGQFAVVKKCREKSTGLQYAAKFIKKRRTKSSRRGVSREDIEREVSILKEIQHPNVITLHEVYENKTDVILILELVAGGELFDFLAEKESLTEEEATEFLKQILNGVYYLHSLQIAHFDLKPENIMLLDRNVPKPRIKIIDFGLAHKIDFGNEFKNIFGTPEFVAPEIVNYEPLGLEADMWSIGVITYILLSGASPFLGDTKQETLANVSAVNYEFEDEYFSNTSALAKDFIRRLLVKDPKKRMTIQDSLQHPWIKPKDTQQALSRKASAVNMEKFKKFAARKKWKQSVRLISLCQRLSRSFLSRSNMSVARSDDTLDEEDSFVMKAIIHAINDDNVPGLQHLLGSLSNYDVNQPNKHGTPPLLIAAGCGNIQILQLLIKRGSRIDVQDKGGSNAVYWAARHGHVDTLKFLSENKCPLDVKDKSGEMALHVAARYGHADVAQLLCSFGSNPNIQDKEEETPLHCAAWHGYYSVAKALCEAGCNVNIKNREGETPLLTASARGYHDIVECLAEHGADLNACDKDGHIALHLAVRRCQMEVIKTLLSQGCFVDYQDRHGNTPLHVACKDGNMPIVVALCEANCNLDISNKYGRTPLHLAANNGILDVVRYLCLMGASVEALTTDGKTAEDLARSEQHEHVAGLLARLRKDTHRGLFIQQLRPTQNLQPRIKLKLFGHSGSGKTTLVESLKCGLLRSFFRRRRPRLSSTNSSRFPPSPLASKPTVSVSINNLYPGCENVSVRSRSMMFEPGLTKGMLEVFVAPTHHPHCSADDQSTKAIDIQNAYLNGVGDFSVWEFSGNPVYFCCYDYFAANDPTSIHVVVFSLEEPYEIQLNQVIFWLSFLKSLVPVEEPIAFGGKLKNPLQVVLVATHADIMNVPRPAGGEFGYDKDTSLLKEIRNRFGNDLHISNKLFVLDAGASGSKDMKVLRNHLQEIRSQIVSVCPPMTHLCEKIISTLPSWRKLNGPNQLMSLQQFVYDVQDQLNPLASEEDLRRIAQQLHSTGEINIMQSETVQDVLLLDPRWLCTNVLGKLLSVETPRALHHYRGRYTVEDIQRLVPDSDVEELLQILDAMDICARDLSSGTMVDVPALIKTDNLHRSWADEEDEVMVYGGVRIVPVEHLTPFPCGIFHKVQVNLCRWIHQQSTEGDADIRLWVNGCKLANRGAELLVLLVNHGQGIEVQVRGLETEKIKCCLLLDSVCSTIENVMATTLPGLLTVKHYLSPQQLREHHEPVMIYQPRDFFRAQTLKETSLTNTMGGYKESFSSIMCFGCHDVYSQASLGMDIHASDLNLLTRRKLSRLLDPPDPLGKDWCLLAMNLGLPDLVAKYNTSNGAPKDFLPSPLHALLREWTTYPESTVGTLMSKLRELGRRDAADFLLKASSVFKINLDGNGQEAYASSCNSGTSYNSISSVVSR
T4 sequence (Q9P289 whole entry): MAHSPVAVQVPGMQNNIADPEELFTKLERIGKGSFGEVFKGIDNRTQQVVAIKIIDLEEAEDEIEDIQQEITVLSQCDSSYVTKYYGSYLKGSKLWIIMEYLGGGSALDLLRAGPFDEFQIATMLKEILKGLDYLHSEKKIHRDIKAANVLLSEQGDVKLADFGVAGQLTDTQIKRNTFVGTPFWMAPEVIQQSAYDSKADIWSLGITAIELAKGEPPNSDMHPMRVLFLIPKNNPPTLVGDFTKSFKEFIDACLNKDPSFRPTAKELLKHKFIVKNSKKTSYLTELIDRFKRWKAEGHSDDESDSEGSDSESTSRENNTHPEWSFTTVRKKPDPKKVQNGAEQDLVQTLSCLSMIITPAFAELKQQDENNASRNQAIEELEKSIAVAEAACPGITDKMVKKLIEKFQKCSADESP
T5 sequence (P36507 whole entry): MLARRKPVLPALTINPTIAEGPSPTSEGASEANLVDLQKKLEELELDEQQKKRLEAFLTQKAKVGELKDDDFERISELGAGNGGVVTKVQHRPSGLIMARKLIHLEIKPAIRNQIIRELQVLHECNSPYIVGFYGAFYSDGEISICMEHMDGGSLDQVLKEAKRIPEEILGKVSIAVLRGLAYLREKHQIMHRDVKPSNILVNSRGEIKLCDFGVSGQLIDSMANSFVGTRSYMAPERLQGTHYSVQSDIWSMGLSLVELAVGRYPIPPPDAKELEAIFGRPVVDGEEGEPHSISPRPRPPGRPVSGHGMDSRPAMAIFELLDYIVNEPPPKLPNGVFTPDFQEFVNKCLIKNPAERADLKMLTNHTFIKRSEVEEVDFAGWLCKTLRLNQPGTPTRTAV
T3 sequence (P48730 whole entry): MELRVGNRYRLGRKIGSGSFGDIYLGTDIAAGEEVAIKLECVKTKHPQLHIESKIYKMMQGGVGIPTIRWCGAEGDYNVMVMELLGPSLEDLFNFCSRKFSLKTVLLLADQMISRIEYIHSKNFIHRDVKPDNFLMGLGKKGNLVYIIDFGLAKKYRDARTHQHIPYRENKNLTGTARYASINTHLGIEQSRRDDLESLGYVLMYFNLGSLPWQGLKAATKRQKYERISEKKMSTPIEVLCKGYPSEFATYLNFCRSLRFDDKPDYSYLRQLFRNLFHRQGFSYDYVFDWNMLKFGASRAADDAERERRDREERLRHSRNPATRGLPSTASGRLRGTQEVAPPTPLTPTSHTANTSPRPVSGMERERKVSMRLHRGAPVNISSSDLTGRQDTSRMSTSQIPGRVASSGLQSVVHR

`Cc1nc(Nc2ncc(C(=O)Nc3c(C)cccc3Cl)s2)cc(N2CCN(CCO)CC2)n1` [Dasatinib, reference compound] showed a remaining activity at 1 µM [1, 10] of 81.6%, a remaining activity at 1 µM [1, 11] of 81.9% and a remaining activity at 1 µM [1, 12] of 81.2%. It also gave a remaining activity at 10 µM [1, 10] of 19%, a remaining activity at 10 µM [1, 11] of 20% and a remaining activity at 10 µM [1, 12] of 18%. It also gave a remaining activity at 1 µM [2, 10] of 92%, a remaining activity at 1 µM [2, 11] of 91.8% and a remaining activity at 1 µM [2, 12] of 92.1%. For the same compound, the remaining activity at 10 µM [2, 10] was 51.4%, the remaining activity at 10 µM [2, 11] was 49.9% and the remaining activity at 10 µM [2, 12] was 52.8%. For the same compound, the remaining activity at 1 µM [3, 10] was 98.7%, the remaining activity at 1 µM [3, 11] was 95.4% and the remaining activity at 1 µM [3, 12] was 102%. The remaining activity at 10 µM [3, 10] was 92.7%, the remaining activity at 10 µM [3, 11] was 93.2% and the remaining activity at 10 µM [3, 12] was 92.2%. It also gave a remaining activity at 1 µM [4, 10] of 40.2%, a remaining activity at 1 µM [4, 11] of 46.5% and a remaining activity at 1 µM [4, 12] of 33.9%. It also gave a remaining activity at 10 µM [4, 10] of 12%, a remaining activity at 10 µM [4, 11] of 9.39% and a remaining activity at 10 µM [4, 12] of 14.6%. The remaining activity at 1 µM [5, 10] was 45.1%, the remaining activity at 1 µM [5, 11] was 44.8% and the remaining activity at 1 µM [5, 12] was 45.5%. For the same compound, the remaining activity at 10 µM [5, 10] was 7.91%, the remaining activity at 10 µM [5, 11] was 8.25% and the remaining activity at 10 µM [5, 12] was 7.56%. The pIC50 [6] was 7.34, the IC50 [7] was 0.0032 µM and the IC50 at 48 h [8] was 0.0324 µM. For the same compound, the IC50 at 48 h [9] was 7.3 µM.
